Reference: US20170066795A1, “SOLID PRODRUG FORMS OF 2'-CHLORO-2'-METHYL URIDINE FOR HCV” (IDENIX PHARMACEUTICALS LLC, priority 2014, published 2017)
Where two headings read alike, the source gives them in different places.

Legend:
Genotype 1 HCV = assay: Example 3 Part I: Compound I QD x 7 days in treatment-naïve Genotype 1 HCV-infected subjects, viral load (HCV RNA); format: in vivo; conditions: 300 mg/day for 7 days
Experimental: This part was a randomized, double-blind, placebo-controlled, parallel group study in treatment-naïve, Genotype 1 HCV-infected subjects. Thirty (30) subjects were randomized across the treatment arms specified below.
Dosing, sampling, and analyses for Parts I and II were made according to Tables A and B.
Compound I was provided as size 0, white, hard hydroxypropyl methylcellulose (HPMC) capsules for oral administration at 5 mg, 25 mg and 50 mg strengths. The same powder blend containing 33.3% weight/weight (w/w) Compound I, a diluent, and a disintegrant is used to fill the capsules for all dose strengths. Matching placebo capsules will also be provided. Storage conditions will be provided on the study drug container label.
Dosing occurred between approximately 08:00 AM and 10:00 AM on each dosing day. Water was permitted ad libitum except for 1 hour before and after dosing. Dosing was immediately followed by administration of 240 mL (8 oz.) of water. Meals and beverages served within 24 hours prior to and post dosing were xanthine-free and caffeine-free. Grapefruit and grapefruit juice were not allowed within 7 days before reporting to the clinic on Day −1 and through the end of the study.

[1] = Example 4 Group B: safety (adverse events) in genotype 1 HCV-infected subjects; format: in vivo, human
Experimental: Five sequential cohorts of 3 HCV-infected subjects (HCV) per cohort received under fasted conditions open-label Compound I at single ascending doses of 10, 25, 50, 150, and 300 mg (below, “Group B”).
(§1) For Groups A and B, dosing occurred between approximately 08:00 AM and 10:00 AM on each dosing day. Dosing was fasted for all subjects in Groups A and B. For fasted dosing, subjects observed a fasting period of approximately 10 hours prior to each dose and for an additional 4 hours post-dose.
Safety measurements included clinical history, routine laboratory evaluation, physical examination, 12-lead ECG, vital signs, adverse event (AE) assessment.

[2] = Example 4 Group A: plasma pharmacokinetics in healthy volunteers (LC/MS/MS); conditions: human, in vivo; for AUC(0-inf) / Cmax / half-life: mean ± SD; for AUC(0-inf): read-out: AUC∞ of Compound I; for Cmax: read-out: Cmax of Compound I; for half-life: read-out: t1/2 of Compound I (converted); for Tmax: median, read-out: Tmax of Compound I
Experimental: Six sequential cohorts of 8 health volunteers per cohort were randomized via a computer-generated randomization list in the ratio of 2:6. Two of the healthy volunteers (HV) received placebo and the remaining six received Compound I under fasted conditions at single ascending doses of 10, 25, 50, 150, or 300 mg, or multiple doses at 300 mg QD for 7 days (below, “Group A”).
Compound I was provided as size 0, white, hard hydroxypropyl methylcellulose (HPMC) capsules for oral administration at 5 mg, 25 mg, and 50 mg strengths. The same powder blend containing 33.3% weight/weight (w/w) Compound I, a diluent, and a disintegrant is used to fill the capsules for all dose strengths. Matching placebo capsules will also be provided. Storage conditions will be provided on the study drug container label.
as §1
Plasma samples were obtained up to 120 hours after dosing and the levels of Compound I and its Nucleoside metabolite were measured by using validated LC/MS/MS methodology. Plasma pharmacokinetic parameters were obtained by using non-compartmental analysis with parameters reported as mean±standard deviation (SD) except for Tmax where median (min-max) is shown.

[3] = 10 mg, 10 mg single dose, fasted
[4] = 25 mg, 25 mg single dose, fasted
[5] = 50 mg, 50 mg single dose, fasted
[6] = 150 mg, 150 mg single dose, fasted
[7] = 300 mg, 300 mg single dose, fasted

## CC(C)OC(=O)[C@@H](C)N[P@@](=O)(OC[C@H]1O[C@@H](n2ccc(=O)[nH]c2=O)[C@](C)(Cl)[C@@H]1O)Oc1ccccc1 [Compound I]
Genotype 1 HCV
  response in genotype 1a versus genotype 1b HCV infection: similar
Genotype 1 HCV; 8 genotype 1 HCV-infected patients
  mean maximal viral load reduction: 4.2 logs
[1]; 10 mg single dose (n = 3)
  Adverse event: Constipation: 0 n, %
  Adverse event: Diarrhea: 0 n, %
  Adverse event: Dry mouth: 0 n, %
  Adverse event: Dry skin: 0 n, %
  Adverse event: Dysuria: 0 n, %
  Adverse event: Fatigue: 0 n, %
  Adverse event: Feces hard: 0 n, %
  Adverse event: Flatulence: 0 n, %
  Adverse event: Headache: 0 n, %
  Adverse event: Myalgia: 1 (33.3) n, %
  Adverse event: Neck pain: 0 n, %
  Adverse event: Pruritus: 0 n, %
  Adverse event: Pruritus generalized: 0 n, %
  Adverse event: Vessel puncture site bruise: 0 n, %
  Subjects with AE: 1 (33.3) n, %
[1]; 25 mg single dose (n = 3)
  Adverse event: Constipation: 1 (33.3) n, %
  Adverse event: Diarrhea: 0 n, %
  Adverse event: Dry mouth: 0 n, %
  Adverse event: Dry skin: 0 n, %
  Adverse event: Dysuria: 0 n, %
  Adverse event: Fatigue: 1 (33.3) n, %
  Adverse event: Feces hard: 0 n, %
  Adverse event: Flatulence: 1 (33.3) n, %
  Adverse event: Headache: 1 (33.3) n, %
  Adverse event: Myalgia: 0 n, %
  Adverse event: Neck pain: 1 (33.3) n, %
  Adverse event: Pruritus: 0 n, %
  Adverse event: Pruritus generalized: 0 n, %
  Adverse event: Vessel puncture site bruise: 0 n, %
  Subjects with AE: 2 (66.7) n, %
[1]; 50 mg single dose (n = 3)
  Adverse event: Constipation: 0 n, %
  Adverse event: Diarrhea: 0 n, %
  Adverse event: Dry mouth: 0 n, %
  Adverse event: Dry skin: 0 n, %
  Adverse event: Dysuria: 1 (33.3) n, %
  Adverse event: Fatigue: 0 n, %
  Adverse event: Feces hard: 0 n, %
  Adverse event: Flatulence: 0 n, %
  Adverse event: Headache: 0 n, %
  Adverse event: Myalgia: 0 n, %
  Adverse event: Neck pain: 0 n, %
  Adverse event: Pruritus: 0 n, %
  Adverse event: Pruritus generalized: 0 n, %
  Adverse event: Vessel puncture site bruise: 0 n, %
  Subjects with AE: 1 (33.3) n, %
[1]; 150 mg single dose (n = 3)
  Adverse event: Constipation: 0 n, %
  Adverse event: Diarrhea: 0 n, %
  Adverse event: Dry mouth: 1 (33.3) n, %
  Adverse event: Dry skin: 1 (33.3) n, %
  Adverse event: Dysuria: 0 n, %
  Adverse event: Fatigue: 1 (33.3) n, %
  Adverse event: Feces hard: 0 n, %
  Adverse event: Flatulence: 0 n, %
  Adverse event: Headache: 0 n, %
  Adverse event: Myalgia: 0 n, %
  Adverse event: Neck pain: 0 n, %
  Adverse event: Pruritus: 1 (33.3) n, %
  Adverse event: Pruritus generalized: 1 (33.3) n, %
  Adverse event: Vessel puncture site bruise: 0 n, %
  Subjects with AE: 2 (66.7) n, %
[1]; 300 mg single dose (n = 3)
  Adverse event: Constipation: 0 n, %
  Adverse event: Diarrhea: 1 (33.3) n, %
  Adverse event: Dry mouth: 0 n, %
  Adverse event: Dry skin: 0 n, %
  Adverse event: Dysuria: 0 n, %
  Adverse event: Fatigue: 0 n, %
  Adverse event: Feces hard: 1 (33.3) n, %
  Adverse event: Flatulence: 0 n, %
  Adverse event: Headache: 0 n, %
  Adverse event: Myalgia: 0 n, %
  Adverse event: Neck pain: 0 n, %
  Adverse event: Pruritus: 0 n, %
  Adverse event: Pruritus generalized: 0 n, %
  Adverse event: Vessel puncture site bruise: 1 (33.3) n, %
  Subjects with AE: 2 (66.7) n, %
[2]; [3]
  AUC(0-inf): 26 ± 7.6 ng·h/mL
  Cmax: 17.4 ± 6.64 ng/mL
  half-life: 0.87 ± 0.25 h
  Tmax: 0.8 h
[2]; [4]
  AUC(0-inf): 51.2 ± 12.8 ng·h/mL
  Cmax: 28.8 ± 13.4 ng/mL
  half-life: 0.91 ± 0.26 h
  Tmax: 1 h
[2]; [5]
  AUC(0-inf): 162 ng·h/mL
  Cmax: 82.4 ± 61.6 ng/mL
  half-life: 1.04 ± 0.34 h
  Tmax: 1 h
[2]; [6]
  AUC(0-inf): 1110 ± 690 ng·h/mL
  Cmax: 667 ± 324 ng/mL
  half-life: 1.16 ± 0.24 h
  Tmax: 1 h
[2]; 300 mg, 300 mg QD, D1, fasted
  AUC(0-inf): 2170 ± 660 ng·h/mL
  Cmax: 1290 ± 333 ng/mL
  half-life: 1.88 ± 0.72 h
  Tmax: 0.8 h
[2]; 300 mg, 300 mg QD, D7, fasted
  AUC(0-inf): 2200 ± 494 ng·h/mL
  Cmax: 1280 ± 238 ng/mL
  half-life: 2.76 ± 1.79 h
  Tmax: 0.5 h
[2]; [7]
  AUC(0-inf): 1680 ± 725 ng·h/mL
  Cmax: 924 ± 441 ng/mL
  half-life: 1.19 ± 0.34 h
  Tmax: 0.5 h
